Source: patent publication US8039668B2, “Naphthalene-based inhibitors of anti-apoptotic proteins” (Burnham Institute for Medical Research, priority 2008, dated 2011)

Key:
HeLa cells = HeLa cells viability assay; type: cell-based; details: Homo sapiens, Table 12
Experimental: Relative numbers of viable cells was determined by XTT assay. Briefly, in a 96-well plate, we added 50 μl of a mixture of 1 mg/ml of XTT (2,3-bis(2-methoxy-4-nitro-5-sulfophenyl)-5-[(phenylamino)carbonyl]-2H-tetrazolium hydroxide) (Polysciences, Washington, Pa.) containing 0.025 mM PMS (phenazine methosulfate) to each well. The 96-well plates were reincubated for an additional 4 hours to allow for XTT formazan production. Then, the contents of each plate were mixed and optical densities were determined at a wavelength of 450 nm (OD450). Net OD450 was determined after subtracting OD450 of blank wells. […] Immunoblot analysis of BCL-XL was accomplished as previously described.

H460 cell line = details: studied by other groups; cited from earlier work

Row | Structure (SMILES) | IC50 (HeLa cells) | IC50 (H460 cell line)
1 | O=c1c(O)cccc2cc(O)c(O)c(O)c12 [Purpurogallin] | 6.5 µM | 
2 | COC1=CC(c2cc3ccccc3[nH]2)=N/C1=C\c1[nH]c(C)cc1C [GX15-070] |  | 3.85 µM
